Laboratory results as given in article PMC7272617 (Scientific Reports, 2020).
Converted amounts (≈) assume the structure as drawn. “And” between values parts separate entries of the source, which are not always exact repeats. Equal entries are not always repeated. Where a SMILES comes first, the peptide text is derived from it.

How the values were obtained:
[1] = test system: all Gram-positive strains; assay: Mean MIC and therapeutic index, Gram-positive strains; assay type: cell-based; settings: 5 Gram-positive strains of Table 3
[2] = test system: MDR P. aeruginosa clinical isolate No.14; settings: MDR clinical isolate No.14, 24 h
human TLR4 (hTLR4) = assay: LPS-mediated TLR4 activation, HEK-Blue hTLR4 SEAP reporter; assay type: cell-based; settings: 250 ng/ml LPS of P. aeruginosa serotype 10, 0.98-250 µg/ml peptide, 16 h; result in words
Protocol: Stimulation with LPS activates NF-kB and AP-1, inducing the production of SEAP. Opposing this, the peptide can interact with LPS and inhibit TLR4 signal transduction, and so decrease production of SEAP. The hydrolysis of substrate by SEAP produces a purple/blue color.
Briefly, HEK-Blue hTLR4 cells (3 × 10^4 cells/well) were seeded in 96-well plates and incubated at 37 °C in an air atmosphere containing 5% CO2 for 24 h. These cells were further incubated with 250 ng/ml LPS of P. aeruginosa serotype 10 (Sigma) and different concentrations of PA-13 (0.98-250 µg/ml) for 16 h. After incubation, supernatants were collected and incubated with QUANTI-Blue™ (InvivoGen). The absorbance of SEAP was monitored at 620 nm. The results were calculated from at least three independent experiments.

[3] = test system: MDR P. aeruginosa clinical isolate No.13; settings: MDR clinical isolate No.13, 24 h
[4] = test system: MDR P. aeruginosa clinical isolate No.9; settings: MDR clinical isolate No.9, 24 h
[5] = test system: Listeria monocytogenes 10403 s; settings: 10403 s, 24 h
P. aeruginosa ATCC 27853 [6] = assay: Time-killing kinetics; assay type: cell-based, Pseudomonas aeruginosa
Protocol: The bacterial killing kinetics of PA-13 was assessed by evaluating the time course to kill suspensions of P. aeruginosa ATCC 27853 as described previously. […] Plates were incubated at 37 °C to determine the number of CFU after 24 h; the assays were performed in triplicate.

[7] = test system: MDR P. aeruginosa clinical isolate No.11; settings: MDR clinical isolate No.11, 24 h
[8] = test system: Enterococcus faecalis ATCC 29212; settings: ATCC 29212, 24 h
P. aeruginosa ATCC 27853 [9] = assay: Membrane permeability (PI) and depolarization (BOX), flow cytometry; assay type: cell-based, Pseudomonas aeruginosa; settings: for permeabilized and depolarized cells: 0.5 × MIC; for cell population BOX+PI- / cell population BOX-PI+ / cell population BOX-PI- / permeabilized and depolarized cells (BOX+PI+): 1 × MIC; for permeabilized and depolarized cells (BOX+PI+): 37 °C, triplicate
Protocol: Their outer and inner membranes provide important protection for Gram-negative bacteria. To assess membrane permeability and depolarization induced by PA-13, the DNA intercalating dyes propidium iodide (PI) and bis-(1,3-dibutylbarbituric acid) trimethine oxonol (BOX) were used as previously described. The fluorescence conferred by these dyes is generally associated with the loss of membrane integrity and potential, respectively.
Briefly, P. aeruginosa ATCC 27853 was cultured to mid-logarithmic phase and harvested by centrifugation at 2,000 × g for 5 min. The bacterial cells were washed thrice with PBS and diluted to 10^7 CFU/ml in 50 ml of PBS. […] Bacterial pellets were harvested and washed with PBS by centrifugation at 10,000 × g for 10 min. […] Untreated bacterial cells (no peptide) served as a negative control, whereas bacterial cells treated with melittin served as a positive control. Data was recorded using a flow cytometer (CytoFlex, Beckman Coulter) at a laser excitation wavelength of 488 nm. Forward scatter (FS), side scatter (SS), green fluorescence (530/30 nm) from BOX and red fluorescence (585/42 nm) emitted by PI were collected using logarithmic scales. 25,000 cells, defined according to their scatter parameters, were counted in each sample. The experiments were performed in triplicate and the data was analyzed using Kaluza software.

[10] = test system: MDR P. aeruginosa clinical isolate No.7; settings: MDR clinical isolate No.7, 24 h
P. aeruginosa ATCC 27853 [11] = assay: Transmission electron microscopy (TEM); assay type: cell-based, Pseudomonas aeruginosa; settings: 0.5 × MIC, 2 h; result in words
Protocol: The bacterial cells were treated and prepared with the same conditions as previously described in SEM[8]. The bacterial pellets were washed twice with PBS and post-fixed with 1% osmium tetroxide in PBS for 2 h, after overnight fixing with 2.5% glutaraldehyde. The fixed bacterial cells were washed twice with PBS, followed by dehydration for 15 min in a graded ethanol series (50%, 70%, 90%, and 100%). After placing in absolute acetone for 20 min, these samples were transferred to a mixture of absolute acetone and epoxy resin (1:1 and 1:3) for 1 h each, followed by transfer to pure epoxy resin and held overnight. Ultrathin sections were cut with a glass knife on an ultramicrotome, and post-stained with uranyl acetate and lead citrate. Specimens were observed using a transmission electron microscope (Hitachi HT7700, Japan).

## CC[C@H](C)[C@H](NC(=O)[C@H](CCCNC(=N)N)NC(=O)[C@H](CCCCN)NC(=O)[C@H](C)NC(=O)[C@@H](NC(=O)[C@@H](N)CCCCN)[C@@H](C)CC)C(=O)N[C@@H](Cc1c[nH]c2ccccc12)C(=O)N[C@@H](CCCCN)C(=O)N[C@H](C(=O)N[C@@H](CC(C)C)C(=O)N[C@@H](CCCNC(=N)N)C(=O)N[C@@H](CCCNC(=N)N)C(=O)N[C@@H](CCCNC(=N)N)C(N)=O)[C@@H](C)CC [PA-13] (H-KIAKRIWKILRRR-NH2; N-terminus assumed)
[1]
  GM (Gr.+ strains): geometric mean of MIC values from all Gram-positive strains: 67.19 µg/mL
[2]
  MIC: 7.81 µg/mL (≈ 4.5 µM)
Human TLR4 (hTLR4)
  inhibition of LPS-mediated TLR4 activation: dose-dependent inhibition
[3]
  MIC: 15.63 µg/mL (≈ 9 µM)
[4]
  MIC: 7.81 µg/mL (≈ 4.5 µM)
[5]
  MIC: 3.91 µg/mL (≈ 2.25 µM)
P. aeruginosa ATCC 27853 [6]
  P. aeruginosa count within 30 min at MIC: approximately 10^4 CFU/ml
P. aeruginosa ATCC 27853 [6]; at MBC
  time to complete killing (no regrowth): ≤ 4 h
P. aeruginosa ATCC 27853 [6]; at MIC (and MBC)
  time to eradicate most bacteria: ≤ 2 h
P. aeruginosa ATCC 27853 [6]; at MIC, result in words
  regrowth after 24 h treatment: regrowth was observed
P. aeruginosa ATCC 27853 [6]; start 10^7 CFU/ml, MBC (7.81 μg/ml), MHB, 37 °C
  P. aeruginosa count within 30 min at MBC: ~10^2 CFU/ml
[7]
  MIC: 7.81 µg/mL (≈ 4.5 µM)
[8]
  MIC: 250 µg/mL (≈ 144 µM)
P. aeruginosa ATCC 27853 [9]; 15 min
  permeabilized and depolarized cells: 72.75 ± 1.08%
  cell population BOX+PI-: 3.55%
  cell population BOX-PI+: 7.74%
  cell population BOX-PI-: 0.68%
  permeabilized and depolarized cells (BOX+PI+): 88.03 ± 3.02% and 88.03%
P. aeruginosa ATCC 27853 [9]; 30 min
  permeabilized and depolarized cells: 75.30 ± 2.68%
  cell population BOX+PI-: 5.74%
  cell population BOX-PI+: 3.61%
  cell population BOX-PI-: 0.96%
  permeabilized and depolarized cells (BOX+PI+): 89.69 ± 5.25% and 89.69%
P. aeruginosa ATCC 27853 [9]; 60 min
  permeabilized and depolarized cells: 81.66 ± 3.35%
  cell population BOX+PI-: 6.25%
  cell population BOX-PI+: 1.05%
  cell population BOX-PI-: 0.62%
  permeabilized and depolarized cells (BOX+PI+): 92.07 ± 5.15% and 92.07%
[10]
  MIC: 7.81 µg/mL (≈ 4.5 µM)
P. aeruginosa ATCC 27853 [11]
  membrane integrity and intracellular alterations (TEM): disrupted cell membrane with visible pores and leakage of cellular contents
